Measured values reported in patent US20150225454A1, “TETRABRANCHED PEPTIDES AND ANALOGUES AS A NEW CLASS OF ANTIMICROBIALS AND THEIR PREPARATION THEREOF” (priority 2012, published 2015).
Where a SMILES comes first, the peptide text is derived from it. Bridges are numbered along the chain shown (N, C = ends). Roman numbers before positions name the chains, in order.

Assays:
C. albicans [1] = experiment: ATP bioluminescence assay (extracellular ATP release); assay type: cell-based
Experimental: The extracellular ATP levels upon challenging C. albicans with B4010 were determined as reported before (Koshlukova et al., 1999). Cells (OD600≈0.6) were incubated […] with or without various additives for 2 hours at 37° C. with orbital shaking. […] Each tube was then centrifuged at 5000 g for 5 mins. Then 225 μL of boiling TE buffer (50 mM Tris, 2 mM EDTA, pH 7.8) was added to the 25 μl of the supernatant and mixed well. This mixture was boiled again for another 2 minutes and stored at 4° C. until further examination. 100 μL of a luciferin-luciferase ATP assay mixture was added to 100 μL of the supernatant and luminescence was monitored using the Infinite M200 microplate reader (Tecan Group Ltd., Switzerland). […] For dose-dependent studies, the concentration of the peptide was varied from 0.4-44 μM. The extracellular ATP concentration was determined from calibration curve obtained by ATP assay kit (Molecular Probes, OR, USA) as per the manufacturer's instruction.

C. albicans [2] = experiment: diS-C3-5 membrane depolarisation assay; assay type: cell-based
Experimental: Change in membrane potential of C. albicans upon addition of B4010 was monitored by the release of potential sensitive probe diS-C3-5 dye. Briefly, 1 ml of overnight grown mid-log phase Candida cells in 5 mM HEPES buffer (pH 7.0) was mixed with 10 μM diS-C3-5 dye and incubated at 37° C. for 1-2 h in a thermo shaker. 800 μL of the dye-loaded cell suspension was transferred to a stirred quartz cuvette and the change in fluorescence intensity was monitored at an emission wavelength (λem) of 670 nm (excitation wavelength, 622 nm) using a Quanta Master spectrofluorimeter (Photon Technology International, NJ, USA). The excitation and emission bandwidths were set at 1 and 2 nm, respectively. Once a constant fluorescence level was achieved, 10 μL of concentrated peptide solution in HEPES buffer was added so that the final concentration of peptide was 0.22-22 μM. The change in fluorescence intensity was monitored continuously for 1 or 2 h. To study the effects of energy poisons and ion-channel inhibitors, the additives were added prior to the addition of 5.5 μM B4010. The change in fluorescence intensity was monitored as before.

C. albicans [3] = experiment: Candidacidal activity (cell viability) in the presence of metal ions; assay type: cell-based; settings: 5.5 μM
Experimental: To study the effects of metal ions on viability, the broth solution containing C. albicans (OD600=0.4-0.6) was adjusted to appropriate final concentrations of metal ions, incubated with 5.5 μM of B4010 for 6 h and the cell viability was determined as before after 48 h.

C. albicans [4] = experiment: microbe, parasite or virus in culture; assay type: cell-based
Experimental: The yeast strains were cultivated and suspended in Sabouraud's Dextrose (SD) broth diluted at one sixth at a starting OD600=˜0.08 in a flat-bottomed microtitre plate. A serial dilution of peptide in the same broth was mixed with the inoculum to give a final peptide concentration of 0.4-22 μM. The antifungal activity was assessed by monitoring the OD600 in cycles of 30 minutes and an orbital shaking at 100 rpm using an Infinite M200 microplate reader (Tecan Group Ltd., Switzerland) for 24/48 h at 37° C. Cultures without peptides were used as positive controls and broth alone or with 22 μM peptide served as negative controls. The minimum concentration required for complete inhibition was assessed by both visible observations as well as by measuring the OD600 and taken as the MIC. Each experiment was repeated in triplicates.

[5] = SDS-PAGE pull down assay with cell wall polysaccharides; assay type: binding; settings: chitin or β-D-glucan, 5.5-22 μM, 2 h, 37° C.
Experimental: In another study to probe the mechanism of action, the affinity of B4010 for insoluble polysaccharides such as chitin and β-D-glucan, the major component of fungal cell walls was examined. B4010 (5.5-22 μM) was incubated with chitin (from shrimp shells) or β-D-glucan for 2 h at 37° C. The mixture was centrifuged at 10,000 g and the supernatant was analyzed by SDS-PAGE (4-20%). A control experiment without chitin/β-D-glucan was also performed to quantify peptide binding to the carbohydrate polymers.

C. albicans ATCC 10231 = experiment: Antifungal activity after incubation with trypsin; assay type: cell-based; settings: trypsin:peptide 1:100, 37° C., up to 6 h
Experimental: For all the experiments, unless otherwise stated, ATCC 10231 strain was used. B4010 (1 mg/ml) was incubated with trypsin (enzyme:peptide ratio 1:100) at 37° C. 20 μL aliquot of this mixture was withdrawn at various time intervals (0.5, 1, 2, 4 and 6 h) and mixed with 1 μL of trypsin inhibitor. The antifungal activity of the peptide was determined by adding this mixture to 180 μl of inoculum and monitoring the growth at OD600 for 24 h. Similar experiments performed in the presence of trypsin/trypsin inhibitor (without B4010) were used as a positive control. For assessing the antifungal activity in tear fluid (TF), the peptide was dissolved in freshly collected rabbit TF and incubated at 37° C. for 6 h. After incubation, an equal volume of an overnight culture of C. albicans (˜10^6 CFU/ml) was mixed with peptides in tear fluid and incubated at 37° C. for 24 h. The final concentrations of the peptide were at 4.4, 8.8 and 22 μM. A 100 μL aliquot of serial dilutions (10^2 or 10^3 times) of this mixture were inoculated on a SD agar plate and then incubated for 48 h at 37° C. Culture alone and culture with 50% tear fluid served as the positive control. […]
The peptide B4010 was incubated with trypsin (trypsin:peptide ratio=1:100) at 37° C. An aliquot of this mixture was withdrawn at various time intervals, added to the C. albicans inoculum and the growth was monitored (FIG. 3C).

In the case of `CC(C)[C@H](NC(=O)[C@H](CCCCN)NC(=O)[C@H](CCCNC(=N)N)NC(=O)CNC(=O)[C@@H](N)CCCNC(=N)N)C(=O)N[C@H](C(=O)N[C@@H](CCCNC(=N)N)C(=O)N[C@@H](CCCNC(=N)N)C(=O)NCCCC[C@H](NC(=O)[C@H](CCCNC(=N)N)NC(=O)[C@H](CCCNC(=N)N)NC(=O)[C@@H](NC(=O)[C@@H](NC(=O)[C@H](CCCCN)NC(=O)[C@H](CCCNC(=N)N)NC(=O)CNC(=O)[C@@H](N)CCCNC(=N)N)C(C)C)C(C)C)C(=O)NCCCC[C@H](NC(=O)[C@H](CCCCNC(=O)[C@H](CCCNC(=N)N)NC(=O)[C@H](CCCNC(=N)N)NC(=O)[C@@H](NC(=O)[C@@H](NC(=O)[C@H](CCCCN)NC(=O)[C@H](CCCNC(=N)N)NC(=O)CNC(=O)[C@@H](N)CCCNC(=N)N)C(C)C)C(C)C)NC(=O)[C@H](CCCNC(=N)N)NC(=O)[C@H](CCCNC(=N)N)NC(=O)[C@@H](NC(=O)[C@@H](NC(=O)[C@H](CCCCN)NC(=O)[C@H](CCCNC(=N)N)NC(=O)CNC(=O)[C@@H](N)CCCNC(=N)N)C(C)C)C(C)C)C(=O)N[C@@H](CCCCN)C(=O)O)C(C)C` [Peptide B4010] (I: H-RGRKVVRRKKK-OH / II: H-RGRKVVRRK / III: H-RGRKVVRR / IV: H-RGRKVVRR; amide I:9-IV:C, I:10-II:C, II:9-III:C; N-terminus and C-terminus assumed), the “time to maximum ATP efflux” value (C. albicans [1]; 4×MIC) is reported as ≤ 30 min, the “concentration of maximum ATP release” value (C. albicans [1]; dose-dependent study) is reported as “around 4 ×MIC” and the “reduction in fluorescence intensity in azide-treated cells compared to control cells” value (C. albicans [2]; 5 mM NaN3 before B4010) is reported as ~25 fold. For the same molecule, the “time course of depolarization” value (C. albicans [2]; upon addition of B4010) was “occurred instantaneously”, the candidacidal activity (C. albicans [3]; high concentration of KCl) was “slight decrease in the candidacidal activity” and the cell viability (C. albicans [3]; presence of monovalent and divalent cations) was “complete loss of viable cells”. For the same molecule, the “MIC for two C. albicans clinical isolates” value (C. albicans [4]) was 0.34 µM, the “MIC values, C. albicans” value (C. albicans [4]) was 0.37 to 1.4 µM and the “decrease in MIC compared to the co-valent dimer” value (C. albicans [4]) was 4-10 fold. The “activity superior to natamycin” value (C. albicans [4]; ATCC reference and clinical isolates) was 2-4 times, the “affinity for cell wall polysaccharides (coprecipitation)” value [5] was “no affinity” and the “antifungal activity after trypsin incubation” value (C. albicans ATCC 10231) was “No loss of antifungal activity”.
